The results in this text go back to patent US20170152239A1, “BENZAMIDE AND HETEROBENZAMIDE COMPOUNDS” (PFIZER INC., priority 2012, published 2017).

SMILES strings stand for the structures.

The target in the test is WT EZH2 (EZH2 4 protein complex: EZH2, EED, SUZ12, RbAp48) (Homo sapiens, UniProt O75530+Q09028+Q15022+Q15910). Kind of test: WT EZH2 nucleosome assay. The format is biochemical. Particulars: nucleosome assay, 5 nM EZH2 4-protein complex, 1.5 μM SAM; read-out: WT EZH2 IC50. How it is done: Nucleosome Assay Protocol:
A. Compound preparation • 1. Prepare 10 mM stock solutions in 100% DMSO from solid material • 2. Serial dilute 10 mM compound stocks either 2 or 3-fold in 100% DMSO to generate compounds for 11 point dose response
B. Reagent preparation • 1. Prepare 1× assay buffer containing 100 mM Tris pH 8.5, 4 mM DTT and 0.01% Tween-20 • 2. Dilute purified HeLA oligonucleosomes and recombinant histone H1 (New England Biolabs) in assay buffer to 1.67×. • 3. Dilute EZH2 4 protein complex (EZH2, EED, SUZ12, RbAp48) to 3.5× in assay buffer • 4. Prepare 10×^3H SAM solution in assay buffer using 0.94 μCi/well of radioactive SAM (Perkin Elmer) and sufficient non-labeled SAM (Sigma) for 1.5 μM final concentration. • 5. Dilute TCA to 20% in DI water
C. Enzyme reaction • 1. Final reaction conditions are 5 nM EZH2 4-protein complex, 1.5 μM SAM, 25 μg/mL oligonucleosomes, 50 nM rH1 in a 50 μl reaction volume. • 2. Add 1 μl of diluted compound to the assay plate (96-well V-bottom polypropylene plates) or 1 μl of DMSO for control wells. • 3. Add 30 μl of nucleosomes to the assay plate • 4. Add 14 μl of EZH2 4 protein complex to the assay plate • 5. Add 5 μl of ^3H SAM to start the reaction. • 6. Stop the reaction after 60 minutes with the addition of 100 μl of 20% TCA • 7. Transfer 150 μl of quenched reaction into a prepared filterplate (Millipore #MSIPN4B10) • 8. Apply vacuum to the filterplate to filter the reaction mix through the membrane. • 9. Wash the filterplate with 8×200 μl of PBS, blot dry and dry in an oven for 30 minutes • 10. Add 50 μl of microscint-20 scintillation fluid (Perkin Elmer) to each well, wait 30 minutes and count on a liquid scintillation counter.
D. Data analysis • 1. IC50 values were determined by fitting the data to a 4-parameter IC50 equation using proprietary curve fitting software.
Wild type (WT) EZH2% Effect at 20 μM and IC50 values (μM) generated in WT EZH2 or EZH2PRC2 mutant Y641N nucleosome assays are provided in Table 3 below. A blank entry in the table indicates the data was not generated in that assay.

WT EZH2 (EZH2 4 protein complex: EZH2, EED, SUZ12, RbAp48), sequence (Q15910 whole entry): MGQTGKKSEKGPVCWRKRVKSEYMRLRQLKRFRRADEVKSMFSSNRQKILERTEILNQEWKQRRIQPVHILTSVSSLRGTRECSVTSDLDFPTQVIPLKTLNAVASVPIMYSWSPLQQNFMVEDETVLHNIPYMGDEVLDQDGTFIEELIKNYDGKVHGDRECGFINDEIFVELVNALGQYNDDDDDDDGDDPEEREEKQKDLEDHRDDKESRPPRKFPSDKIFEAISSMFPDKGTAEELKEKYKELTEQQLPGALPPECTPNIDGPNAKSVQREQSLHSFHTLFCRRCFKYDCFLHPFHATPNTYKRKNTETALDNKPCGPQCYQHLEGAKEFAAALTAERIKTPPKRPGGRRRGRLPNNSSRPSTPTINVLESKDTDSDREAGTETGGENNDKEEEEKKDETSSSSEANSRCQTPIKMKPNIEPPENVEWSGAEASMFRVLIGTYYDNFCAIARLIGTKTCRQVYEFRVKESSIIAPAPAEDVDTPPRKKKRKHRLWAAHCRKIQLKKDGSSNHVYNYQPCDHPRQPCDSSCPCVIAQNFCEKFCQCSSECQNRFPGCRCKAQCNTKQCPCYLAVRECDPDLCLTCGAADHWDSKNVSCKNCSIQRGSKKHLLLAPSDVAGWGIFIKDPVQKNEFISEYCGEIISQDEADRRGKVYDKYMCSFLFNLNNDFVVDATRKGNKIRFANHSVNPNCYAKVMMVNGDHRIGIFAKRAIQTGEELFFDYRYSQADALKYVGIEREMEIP
WT EZH2 (EZH2 4 protein complex: EZH2, EED, SUZ12, RbAp48), sequence (O75530 whole entry partner): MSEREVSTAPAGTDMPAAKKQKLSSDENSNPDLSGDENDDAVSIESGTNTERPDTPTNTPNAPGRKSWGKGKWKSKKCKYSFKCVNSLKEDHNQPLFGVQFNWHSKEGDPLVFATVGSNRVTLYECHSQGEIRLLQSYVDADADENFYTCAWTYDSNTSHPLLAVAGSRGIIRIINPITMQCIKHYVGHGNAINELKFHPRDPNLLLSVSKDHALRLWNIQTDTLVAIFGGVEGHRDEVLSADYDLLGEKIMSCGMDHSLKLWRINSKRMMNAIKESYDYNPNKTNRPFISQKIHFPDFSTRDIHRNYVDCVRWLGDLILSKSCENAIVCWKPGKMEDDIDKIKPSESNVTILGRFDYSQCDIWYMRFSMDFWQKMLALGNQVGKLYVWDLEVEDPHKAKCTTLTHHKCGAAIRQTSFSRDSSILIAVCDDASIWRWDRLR
WT EZH2 (EZH2 4 protein complex: EZH2, EED, SUZ12, RbAp48), sequence (Q15022 whole entry partner): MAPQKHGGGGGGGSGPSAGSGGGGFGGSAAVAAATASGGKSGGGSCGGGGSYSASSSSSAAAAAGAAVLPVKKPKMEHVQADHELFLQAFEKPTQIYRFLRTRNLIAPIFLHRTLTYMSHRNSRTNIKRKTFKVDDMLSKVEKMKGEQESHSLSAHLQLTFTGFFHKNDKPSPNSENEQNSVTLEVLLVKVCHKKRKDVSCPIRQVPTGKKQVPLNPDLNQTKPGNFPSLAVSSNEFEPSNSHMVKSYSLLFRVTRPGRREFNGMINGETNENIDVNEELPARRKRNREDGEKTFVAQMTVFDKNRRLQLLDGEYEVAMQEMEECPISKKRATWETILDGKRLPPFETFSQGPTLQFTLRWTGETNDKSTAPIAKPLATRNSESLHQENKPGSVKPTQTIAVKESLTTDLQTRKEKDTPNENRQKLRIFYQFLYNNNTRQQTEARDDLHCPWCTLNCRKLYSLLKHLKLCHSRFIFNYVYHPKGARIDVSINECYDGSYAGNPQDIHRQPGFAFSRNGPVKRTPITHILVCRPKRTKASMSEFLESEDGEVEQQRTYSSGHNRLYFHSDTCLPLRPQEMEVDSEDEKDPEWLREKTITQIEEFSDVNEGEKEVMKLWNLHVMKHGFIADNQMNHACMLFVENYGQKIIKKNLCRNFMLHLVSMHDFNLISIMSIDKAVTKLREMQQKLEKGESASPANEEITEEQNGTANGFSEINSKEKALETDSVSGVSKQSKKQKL
WT EZH2 (EZH2 4 protein complex: EZH2, EED, SUZ12, RbAp48), sequence (Q09028 whole entry partner): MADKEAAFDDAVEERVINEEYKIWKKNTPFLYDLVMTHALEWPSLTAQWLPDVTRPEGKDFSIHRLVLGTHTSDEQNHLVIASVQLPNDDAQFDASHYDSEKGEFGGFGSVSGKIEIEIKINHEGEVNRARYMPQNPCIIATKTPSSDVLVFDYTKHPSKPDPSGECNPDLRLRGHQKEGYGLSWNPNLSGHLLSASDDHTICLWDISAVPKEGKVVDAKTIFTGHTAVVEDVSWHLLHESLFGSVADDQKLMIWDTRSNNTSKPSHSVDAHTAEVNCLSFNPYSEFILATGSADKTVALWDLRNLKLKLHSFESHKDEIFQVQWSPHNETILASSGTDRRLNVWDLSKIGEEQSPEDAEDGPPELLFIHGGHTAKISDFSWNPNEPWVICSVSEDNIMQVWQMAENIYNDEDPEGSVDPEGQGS

The term IC50 denotes the concentration that inhibits the measured activity by half. Take `Cc1cc(C)c(CNC(=O)c2cccc(-c3c(C)cnn3C)c2C)c(=O)[nH]1` [Example 1, N-[(4,6-dimethyl-2-oxo-1,2-dihydropyridin-3-yl)methyl]-3-(1,4-dimethyl-1H-pyrazol-5-yl)-2-methylbenzamide]: the IC50 came out at 0.47 µM.

Regarding `Cc1cc(C)c(CNC(=O)c2cccc(-c3c(C)n[nH]c3C)c2C)c(=O)[nH]1` [Example 3, N-[(4,6-dimethyl-2-oxo-1,2-dihydropyridin-3-yl)methyl]-3-(3,5-dimethyl-1H-pyrazol-4-yl)-2-methylbenzamide], the IC50 was found to be 0.92 µM.

With `Cc1cc(C)c(CNC(=O)c2cccc(-c3c(C)ncn3C)c2C)c(=O)[nH]1` [Example 4, 3-(1,4-dimethyl-1H-imidazol-5-yl)-N-[(4,6-dimethyl-2-oxo-1,2-dihydropyridin-3-yl)methyl]-2-methylbenzamide], the IC50 was 0.23 µM.

With `Cc1cc(C)c(CNC(=O)c2cc(Cl)cc(-c3c(C)cnn3C)c2C)c(=O)[nH]1` [Example 7, 5-chloro-N-[(4,6-dimethyl-2-oxo-1,2-dihydropyridin-3-yl)methyl]-3-(1,4-dimethyl-1H-pyrazol-5-yl)-2-methylbenzamide], the IC50 worked out at 0.22 µM.

On to `CCCc1cc(C)[nH]c(=O)c1CNC(=O)c1cc(Cl)cc(-c2ccnn2C)c1C` [Example 8, 5-chloro-2-methyl-N-[(6-methyl-2-oxo-4-propyl-1,2-dihydropyridin-3-yl)methyl]-3-(1-methyl-1H-pyrazol-5-yl)benzamide], for which the IC50 came out at 0.88 µM.

As to `Cc1cc(C)c(CNC(=O)c2cccc(-c3ccnn3C)c2Cl)c(=O)[nH]1` [Example 9, 2-chloro-N-[(4,6-dimethyl-2-oxo-1,2-dihydropyridin-3-yl)methyl]-3-(1-methyl-1H-pyrazol-5-yl)benzamide], the IC50 is 0.7 µM.

On to `Cc1cc(C)c(CNC(=O)c2cccc(-c3c(Cl)cnn3C)c2C)c(=O)[nH]1` [Example 10, 3-(4-chloro-1-methyl-1H-pyrazol-5-yl)-N-[(4,6-dimethyl-2-oxo-1,2-dihydropyridin-3-yl)methyl]-2-methylbenzamide], for which the IC50 stood at 0.38 µM.

Turning to `Cc1cc(C)c(CNC(=O)c2cccc(-c3c(F)cnn3C)c2C)c(=O)[nH]1` [Example 11, N-[(4,6-dimethyl-2-oxo-1,2-dihydropyridin-3-yl)methyl]-3-(4-fluoro-1-methyl-1H-pyrazol-5-yl)-2-methylbenzamide], the IC50 worked out at 0.36 µM.

On to `CCn1ncc(C)c1-c1cccc(C(=O)NCc2c(C)cc(C)[nH]c2=O)c1C` [Example 12, N-[(4,6-dimethyl-2-oxo-1,2-dihydropyridin-3-yl)methyl]-3-(1-ethyl-4-methyl-1H-pyrazol-5-yl)-2-methylbenzamide], for which the IC50 came out at 0.11 µM.

As for `Cc1cc(C)c(CNC(=O)c2cc(-c3cncnc3)cc(-c3ccnn3C)c2C)c(=O)[nH]1` [Example 17, N-[(4,6-dimethyl-2-oxo-1,2-dihydropyridin-3-yl)methyl]-2-methyl-3-(1-methyl-1H-pyrazol-5-yl)-5-pyrimidin-5-ylbenzamide], the IC50 is 0.16 µM.

Turning to `Cc1cc(C)c(CNC(=O)c2cc(-c3cnn(C)c3)cc(-c3ccnn3C)c2C)c(=O)[nH]1` [Example 18, N-[(4,6-dimethyl-2-oxo-1,2-dihydropyridin-3-yl)methyl]-2-methyl-5-(1-methyl-1H-pyrazol-4-yl)-3-(1-methyl-1H-pyrazol-5-yl)benzamide], the IC50 was 0.14 µM.

Take `Cc1cc(C)c(CNC(=O)c2cc(-c3ccc(N)nc3)cc(-c3ccnn3C)c2C)c(=O)[nH]1` [Example 19, 5-(6-aminopyridin-3-yl)-N-[(4,6-dimethyl-2-oxo-1,2-dihydropyridin-3-yl)methyl]-2-methyl-3-(1-methyl-1H-pyrazol-5-yl)benzamide]: the IC50 came to 0.041 µM.

As for `Cc1cc(C)c(CNC(=O)c2cc(C3=CCOCC3)cc(-c3ccnn3C)c2C)c(=O)[nH]1` [Example 20, 5-(3,6-dihydro-2H-pyran-4-yl)-N-[(4,6-dimethyl-2-oxo-1,2-dihydropyridin-3-yl)methyl]-2-methyl-3-(1-methyl-1H-pyrazol-5-yl)benzamide], the IC50 stood at 0.19 µM.

Take `Cc1cc(C)c(CNC(=O)c2cc(-c3cnc(N4CCOCC4)nc3)cc(-c3c(C)cnn3C)c2C)c(=O)[nH]1` [Example 21, N-[(4,6-dimethyl-2-oxo-1,2-dihydropyridin-3-yl)methyl]-3-(1,4-dimethyl-1H-pyrazol-5-yl)-2-methyl-5-(2-morpholin-4-ylpyrimidin-5-yl)benzamide]: the IC50 is 0.019 µM.

As for `Cc1cc(C)c(CNC(=O)c2cc(-c3cnc(N4C5CCC4COC5)nc3)cc(-c3c(C)cnn3C)c2C)c(=O)[nH]1` [Example 23, N-[(4,6-dimethyl-2-oxo-1,2-dihydropyridin-3-yl)methyl]-3-(1,4-dimethyl-1H-pyrazol-5-yl)-2-methyl-5-{2-[3-oxa-8-azabicyclo[3.2.1]oct-8-yl]pyrimidin-5-yl}benzamide], the IC50 came to 0.015 µM.

As to `COc1ncc(-c2cc(C(=O)NCc3c(C)cc(C)[nH]c3=O)c(C)c(-c3c(C)cnn3C)c2)cn1` [Example 25, N-[(4,6-dimethyl-2-oxo-1,2-dihydropyridin-3-yl)methyl]-3-(1,4-dimethyl-1H-pyrazol-5-yl)-5-(2-methoxypyrimidin-5-yl)-2-methylbenzamide], the IC50 came out at 0.16 µM.

In the case of `Cc1cc(C)c(CNC(=O)c2cc(Cl)cc(-n3c(C)cnc3C)c2C)c(=O)[nH]1` [Example 28, 5-chloro-3-(2,5-dimethyl-1H-imidazol-1-yl)-N-[(4,6-dimethyl-2-oxo-1,2-dihydropyridin-3-yl)methyl]-2-methylbenzamide], the IC50 was determined as 0.26 µM.

Take `Cc1cc(C)c(CNC(=O)c2cc(Cl)cc(-n3ccnc3C)c2C)c(=O)[nH]1` [Example 29, 5-chloro-N-[(4,6-dimethyl-2-oxo-1,2-dihydropyridin-3-yl)methyl]-2-methyl-3-(2-methyl-1H-imidazol-1-yl)benzamide]: the IC50 stood at 0.71 µM.

With `Cc1cc(C)c(CNC(=O)c2cc(C#N)cc(-c3c(C)cnn3C)c2C)c(=O)[nH]1` [Example 30, 5-cyano-N-[(4,6-dimethyl-2-oxo-1,2-dihydropyridin-3-yl)methyl]-3-(1,4-dimethyl-1H-pyrazol-5-yl)-2-methylbenzamide], the half-maximal inhibitory concentration (IC50) stood at 0.54 µM.

As for `Cc1cc(C)c(CNC(=O)c2nc(-c3ccc(N)nc3)nc(-c3ccnn3C)c2C)c(=O)[nH]1` [Example 34, 2-(6-aminopyridin-3-yl)-N-[(4,6-dimethyl-2-oxo-1,2-dihydropyridin-3-yl)methyl]-5-methyl-6-(1-methyl-1H-pyrazol-5-yl)pyrimidine-4-carboxamide], the half-inhibitory concentration (IC50) came out at 0.94 µM.

For the compound `Cc1cc(C)c(CNC(=O)c2cc(F)cc(-c3c(C)cnn3C)c2C)c(=O)[nH]1` [Example 38, N-[(4,6-dimethyl-2-oxo-1,2-dihydropyridin-3-yl)methyl]-3-(1,4-dimethyl-1H-pyrazol-5-yl)-5-fluoro-2-methylbenz-amide], the IC50 was 0.71 µM.

Turning to `CCc1cnn(C)c1-c1cccc(C(=O)NCc2c(C)cc(C)[nH]c2=O)c1C` [Example 39, N-[(4,6-dimethyl-2-oxo-1,2-dihydropyridin-3-yl)methyl]-3-(4-ethyl-1-methyl-1H-pyrazol-5-yl)-2-methylbenz-amide], the IC50 was 0.87 µM.

On to `Cc1cc(C)c(CNC(=O)c2nc(Cl)nc(N3C4CCC3CC4)c2C)c(=O)[nH]1` [Example 40, 6-(7-azabicyclo[2.2.1]hept-7-yl)-2-chloro-N-[(4,6-dimethyl-2-oxo-1,2-dihydropyridin-3-yl)methyl]-5-methylpyrimi-dine-4-carboxamide], for which the IC50 turned out to be 1.03 µM.

Regarding `Cc1cc(C)c(CNC(=O)c2cc(C3=CCOCC3)cc(C3=CCOCC3)c2C)c(=O)[nH]1` [Example 42, 3,5-di-3,6-dihydro-2H-pyran-4-yl-N-[(4,6-dimethyl-2-oxo-1,2-dihydropyridin-3-yl)methyl]-2-methylbenz-amide], the IC50 was 1.12 µM.

For the compound `Cc1cc(C)c(CNC(=O)c2nc(N3CCC(N)CC3)nc(-c3ccnn3C)c2C)c(=O)[nH]1` [Example 43, 2-(4-aminopiperidin-1-yl)-N-[(4,6-dimethyl-2-oxo-1,2-dihydropyridin-3-yl)methyl]-5-methyl-6-(1-methyl-1H-pyrazol-5-yl)pyrimidine-4-carboxamide], the IC50 turned out to be 1.34 µM.

`Cc1cc(C)c(CNC(=O)c2nc(-c3cncnc3)nc(N3CCC[C@@H]3C)c2C)c(=O)[nH]1` [Example 44, N-[(4,6-dimethyl-2-oxo-1,2-dihydropyridin-3-yl)methyl]-5-methyl-6-[(2S)-2-methylpyrrolidin-1-yl]-2,5′-bipyrimidine-4-carboxamide]: the concentration for half-maximal inhibition (IC50) was determined as 1.41 µM.
